Assay results taken from patent US10800791B2, “Triazole ACC inhibitors and uses thereof” (Gilead Apollo, LLC, priority 2015, dated 2020).
pIC50: −log10 of the molar value. ≈ marks a conversion by molar mass, not a printed value. Like-named read-outs stand apart in the source and are kept apart here.

Experiments:
fungal (fACC2) = fungal (fACC2) (UniProt Q00955); settings: read-out: fACC2 (in vitro ACC2 Inhibition Assay, IC50), ADP-Glo, 5 nM ACC2, 20 μM ATP, 20 μM acetyl-CoA
Method: An exemplary procedure for the in vitro ACC inhibition assay, which can be used to determine the inhibitory action of compounds of the invention toward either human (hACC2) or fungal (fACC2), follows. The ADP-Glo™ Kinase Assay kit from Promega was used. The ADP-Glo™ Kinase Assay is a luminescent ADP detection assay to measure enzymatic activity by quantifying the amount of ADP produced during an enzyme reaction. The assay is performed in two steps; first, after the enzyme reaction, an equal volume of ADP-Glo™ Reagent is added to terminate the reaction and deplete the remaining ATP. Second, the Kinase Detection Reagent is added to simultaneously convert ADP to ATP and allow the newly synthesized ATP to be measured using a luciferase/luciferin reaction. Luminescence can be correlated to ADP concentrations by using an ATP-to-ADP conversion curve. […] 50 μL of the compound being tested (600 μM in DMSO) was added to a 384-well dilution plate. The compound was diluted 1:3 in succession in DMSO for each row for 11 wells. 0.5 μL ACC2 working solution was added to 384-well white Optiplate assay plate. 0.5 μL diluted compound solution in each column from step 2 was added to assay plate, each row containing 2 replicates. […] The plates were incubated at room temperature for 15 minutes. 5 μL substrate working solution was added to each well to initiate reaction. Final ACC2 reaction concentrations consist of: 5 nM ACC2, 20 μM ATP, 20 μM acetyl-CoA, 12 mM NaHCO3, 0.01% Brij35, 2 mM DTT, 5% DMSO, test compound concentrations: 30 μM, 10 μM, 3.33 μM, 1.11 μM, 0.37 μM, 0.123 μM, 0.0411 μM, 0.0137 μM, 0.00457 μM, 0.00152 μM, and 0.00051 μM. Plates were incubated at room temperature for 60 minutes. 10 μL ADP glo reagent was added. Plates were incubated at room temperature for 40 minutes. 20 μL kinase detection reagent was added. Plates were incubated at room temperature for 40 minutes, and then read on a Perkin Elmer EnVision 2104 plate reader for luminescence as Relative Light Units (RLU).
Data for each concentration, as well as the positive and negative controls were averaged, and the standard deviation calculated. Percent inhibition was calculated by the formula: 100×(average negative control−compound)/(average negative control−average positive control). The IC50 for each compound was calculated by fitting the data with a non-linear regression equation: Y=Bottom+(Top−Bottom)/(1+10 ((Log IC50−X)*HillSlope)), where X is the log of compound concentration and Y is percent inhibition.

C. parapsilosis = assay: Antifungal Activity Assay (broth microtiter MIC), C. parapsilosis; assay type: cell-based, Candida parapsilosis; settings: Lodderomyces parapsilosis, ATCC22019, 48 h
Method: (§1) Compounds of the present invention were evaluated in an Antifungal Activity Assay. An exemplary procedure for the assay, which measures the susceptibility of various Candida species to antifungal compounds, follows. Compounds to be tested (including fluconazole and amphotericin B) were dissolved in DMSO to obtain a solution having a concentration of 1 mg/mL. These stock solutions were sterile filtered using a 0.22 um nylon syringe filter, then diluted in sterile water to achieve a final concentration of 128 μg/mL.
(§2) All species were grown from frozen stock by directly plating on to freshly prepared Sabouraud Dextrose agar (BD, Difco) and incubated overnight in ambient air at 35° C. for 24 h. A direct suspension was prepared in RPMI 1640+MOPS (Lonza, Biowhittaker) by taking individual colonies from the overnight cultures using sterile swabs soaked in sterile saline. The concentration of the suspension was determined using pre-determined standard curves. These suspensions were then diluted down to 5×10^3 CFU/mL to achieve a final concentration of 2.5×10^3 CFU/mL once added to the microtiter plate as per CLSI guidelines (M27-A3, Vol. 28 No. 14).
(§3) Broth microtiter MIC challenge plates were prepared following CLSI guidelines (M27-A3, Vol. 28 No. 14). The original CLSI guidelines focused on reading Candida MICs after 48 h of incubation. As reading after only 24 h offers a clear advantage of patient care, QC limits are being established for all drugs at 24 h. That being said there are no known interpretive breakpoints for amphotericin B at 24 h and the current fluconazole interpretive breakpoints are based on a 48 h reading. The MICs for the test compounds were recorded at 48 h. All MIC determinations were achieved by visually comparing the growth found in the antibiotic challenged wells to that of the growth control.

C. krusei = assay: Antifungal Activity Assay (broth microtiter MIC), C. krusei; assay type: cell-based, Candida krusei; settings: Pichia kudriavzevii, ATCC6258, 48 h
Method: as §1, §2, §3

human (hACC2) = human (hACC2) (Homo sapiens, UniProt O00763); assay: In vitro ACC inhibition assay (ADP-Glo), hACC2; assay type: biochemical; settings: 5 nM ACC2, 20 μM ATP, 20 μM acetyl-CoA
human (hACC2), sequence (O00763 whole entry): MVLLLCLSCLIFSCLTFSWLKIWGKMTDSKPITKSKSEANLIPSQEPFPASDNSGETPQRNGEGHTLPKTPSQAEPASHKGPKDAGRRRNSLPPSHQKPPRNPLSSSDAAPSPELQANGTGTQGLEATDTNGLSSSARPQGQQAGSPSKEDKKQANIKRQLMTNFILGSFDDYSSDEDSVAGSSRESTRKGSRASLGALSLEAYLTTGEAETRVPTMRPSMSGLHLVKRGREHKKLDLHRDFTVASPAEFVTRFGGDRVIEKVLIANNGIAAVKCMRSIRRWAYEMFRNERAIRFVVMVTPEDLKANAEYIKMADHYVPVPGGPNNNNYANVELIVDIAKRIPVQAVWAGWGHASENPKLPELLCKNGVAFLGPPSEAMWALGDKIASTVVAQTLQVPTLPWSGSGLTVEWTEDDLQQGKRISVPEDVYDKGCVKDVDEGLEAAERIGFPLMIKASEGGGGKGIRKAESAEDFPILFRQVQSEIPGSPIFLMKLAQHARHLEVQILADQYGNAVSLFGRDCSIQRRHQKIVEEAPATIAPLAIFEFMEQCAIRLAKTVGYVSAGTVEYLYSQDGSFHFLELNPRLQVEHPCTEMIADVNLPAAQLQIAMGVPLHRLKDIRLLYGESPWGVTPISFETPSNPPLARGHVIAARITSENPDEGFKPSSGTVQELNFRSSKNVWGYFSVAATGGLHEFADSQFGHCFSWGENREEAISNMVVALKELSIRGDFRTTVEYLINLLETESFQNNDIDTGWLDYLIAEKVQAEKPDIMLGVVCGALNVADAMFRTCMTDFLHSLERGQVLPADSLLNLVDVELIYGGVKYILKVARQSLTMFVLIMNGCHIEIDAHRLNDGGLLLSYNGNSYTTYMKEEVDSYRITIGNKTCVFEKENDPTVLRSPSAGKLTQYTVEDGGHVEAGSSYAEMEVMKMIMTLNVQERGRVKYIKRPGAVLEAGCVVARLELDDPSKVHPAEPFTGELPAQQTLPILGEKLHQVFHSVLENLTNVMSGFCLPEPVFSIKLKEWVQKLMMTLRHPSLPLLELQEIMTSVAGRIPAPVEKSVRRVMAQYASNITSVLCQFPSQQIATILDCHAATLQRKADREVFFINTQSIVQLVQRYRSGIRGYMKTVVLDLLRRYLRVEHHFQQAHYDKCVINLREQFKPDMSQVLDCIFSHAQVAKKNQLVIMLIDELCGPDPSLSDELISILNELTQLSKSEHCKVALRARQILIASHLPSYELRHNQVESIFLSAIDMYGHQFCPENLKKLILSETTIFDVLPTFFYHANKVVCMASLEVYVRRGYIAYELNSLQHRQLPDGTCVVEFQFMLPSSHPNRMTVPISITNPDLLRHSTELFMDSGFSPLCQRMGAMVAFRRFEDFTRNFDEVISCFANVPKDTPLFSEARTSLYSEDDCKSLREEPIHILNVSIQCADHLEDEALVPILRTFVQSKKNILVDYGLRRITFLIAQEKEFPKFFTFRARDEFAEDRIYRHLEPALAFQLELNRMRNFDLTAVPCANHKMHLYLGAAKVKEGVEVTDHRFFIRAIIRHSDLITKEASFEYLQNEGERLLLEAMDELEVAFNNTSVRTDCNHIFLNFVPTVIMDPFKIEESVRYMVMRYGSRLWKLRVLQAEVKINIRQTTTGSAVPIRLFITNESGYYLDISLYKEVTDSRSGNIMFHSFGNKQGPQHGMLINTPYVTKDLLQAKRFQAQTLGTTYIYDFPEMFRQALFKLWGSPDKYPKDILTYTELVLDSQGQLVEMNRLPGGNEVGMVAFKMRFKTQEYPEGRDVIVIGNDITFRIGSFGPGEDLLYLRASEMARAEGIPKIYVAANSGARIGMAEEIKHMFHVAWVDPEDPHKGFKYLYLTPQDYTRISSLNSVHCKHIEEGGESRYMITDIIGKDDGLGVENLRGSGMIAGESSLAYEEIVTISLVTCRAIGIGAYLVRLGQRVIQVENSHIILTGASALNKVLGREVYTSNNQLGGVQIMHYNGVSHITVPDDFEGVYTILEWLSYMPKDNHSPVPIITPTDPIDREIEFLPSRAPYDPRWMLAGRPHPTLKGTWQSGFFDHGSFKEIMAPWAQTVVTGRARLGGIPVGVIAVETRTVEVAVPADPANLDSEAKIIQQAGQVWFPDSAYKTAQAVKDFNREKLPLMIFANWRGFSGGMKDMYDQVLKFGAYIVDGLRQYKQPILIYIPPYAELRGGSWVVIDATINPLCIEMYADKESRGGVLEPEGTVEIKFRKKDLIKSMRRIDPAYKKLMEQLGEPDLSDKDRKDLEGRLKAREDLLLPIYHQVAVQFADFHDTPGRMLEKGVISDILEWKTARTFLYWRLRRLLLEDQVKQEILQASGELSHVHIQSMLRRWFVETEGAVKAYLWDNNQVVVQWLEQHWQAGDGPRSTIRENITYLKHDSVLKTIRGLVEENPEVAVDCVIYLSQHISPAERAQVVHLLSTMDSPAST
Method: The detailed procedure is as follows. […] 10 μL ADP glo reagent was added. […] 20 μL kinase detection reagent was added.

C. albicans = assay: Antifungal Activity Assay (broth microtiter MIC), C. albicans; assay type: cell-based, Candida albicans; settings: Candida albicans, ATCC90028, 48 h
Method: as §1, §2, §3

[1] = Table 3a, ATCC 22019, 3 replicates, MIC recorded at 48 h, read-out: MIC, C. parapsilosis ATCC 22019
[2] = Table 3b (additional results), ATCC 22019, 3 replicates, MIC recorded at 48 h, read-out: MIC, C. parapsilosis ATCC 22019
[3] = Table 3a, ATCC 6258, 3 replicates, MIC recorded at 48 h, read-out: MIC, C. krusei ATCC 6258
[4] = Table 3b (additional results), ATCC 6258, 3 replicates, MIC recorded at 48 h, read-out: MIC, C. krusei ATCC 6258
[5] = Table 3a, ATCC 90028, 3 replicates, MIC recorded at 48 h, read-out: MIC, C. albicans ATCC 90028
[6] = Table 3b (additional results), ATCC 90028, 3 replicates, MIC recorded at 48 h, read-out: MIC, C. albicans ATCC 90028

fungal (fACC2), sequence (Q00955 whole entry): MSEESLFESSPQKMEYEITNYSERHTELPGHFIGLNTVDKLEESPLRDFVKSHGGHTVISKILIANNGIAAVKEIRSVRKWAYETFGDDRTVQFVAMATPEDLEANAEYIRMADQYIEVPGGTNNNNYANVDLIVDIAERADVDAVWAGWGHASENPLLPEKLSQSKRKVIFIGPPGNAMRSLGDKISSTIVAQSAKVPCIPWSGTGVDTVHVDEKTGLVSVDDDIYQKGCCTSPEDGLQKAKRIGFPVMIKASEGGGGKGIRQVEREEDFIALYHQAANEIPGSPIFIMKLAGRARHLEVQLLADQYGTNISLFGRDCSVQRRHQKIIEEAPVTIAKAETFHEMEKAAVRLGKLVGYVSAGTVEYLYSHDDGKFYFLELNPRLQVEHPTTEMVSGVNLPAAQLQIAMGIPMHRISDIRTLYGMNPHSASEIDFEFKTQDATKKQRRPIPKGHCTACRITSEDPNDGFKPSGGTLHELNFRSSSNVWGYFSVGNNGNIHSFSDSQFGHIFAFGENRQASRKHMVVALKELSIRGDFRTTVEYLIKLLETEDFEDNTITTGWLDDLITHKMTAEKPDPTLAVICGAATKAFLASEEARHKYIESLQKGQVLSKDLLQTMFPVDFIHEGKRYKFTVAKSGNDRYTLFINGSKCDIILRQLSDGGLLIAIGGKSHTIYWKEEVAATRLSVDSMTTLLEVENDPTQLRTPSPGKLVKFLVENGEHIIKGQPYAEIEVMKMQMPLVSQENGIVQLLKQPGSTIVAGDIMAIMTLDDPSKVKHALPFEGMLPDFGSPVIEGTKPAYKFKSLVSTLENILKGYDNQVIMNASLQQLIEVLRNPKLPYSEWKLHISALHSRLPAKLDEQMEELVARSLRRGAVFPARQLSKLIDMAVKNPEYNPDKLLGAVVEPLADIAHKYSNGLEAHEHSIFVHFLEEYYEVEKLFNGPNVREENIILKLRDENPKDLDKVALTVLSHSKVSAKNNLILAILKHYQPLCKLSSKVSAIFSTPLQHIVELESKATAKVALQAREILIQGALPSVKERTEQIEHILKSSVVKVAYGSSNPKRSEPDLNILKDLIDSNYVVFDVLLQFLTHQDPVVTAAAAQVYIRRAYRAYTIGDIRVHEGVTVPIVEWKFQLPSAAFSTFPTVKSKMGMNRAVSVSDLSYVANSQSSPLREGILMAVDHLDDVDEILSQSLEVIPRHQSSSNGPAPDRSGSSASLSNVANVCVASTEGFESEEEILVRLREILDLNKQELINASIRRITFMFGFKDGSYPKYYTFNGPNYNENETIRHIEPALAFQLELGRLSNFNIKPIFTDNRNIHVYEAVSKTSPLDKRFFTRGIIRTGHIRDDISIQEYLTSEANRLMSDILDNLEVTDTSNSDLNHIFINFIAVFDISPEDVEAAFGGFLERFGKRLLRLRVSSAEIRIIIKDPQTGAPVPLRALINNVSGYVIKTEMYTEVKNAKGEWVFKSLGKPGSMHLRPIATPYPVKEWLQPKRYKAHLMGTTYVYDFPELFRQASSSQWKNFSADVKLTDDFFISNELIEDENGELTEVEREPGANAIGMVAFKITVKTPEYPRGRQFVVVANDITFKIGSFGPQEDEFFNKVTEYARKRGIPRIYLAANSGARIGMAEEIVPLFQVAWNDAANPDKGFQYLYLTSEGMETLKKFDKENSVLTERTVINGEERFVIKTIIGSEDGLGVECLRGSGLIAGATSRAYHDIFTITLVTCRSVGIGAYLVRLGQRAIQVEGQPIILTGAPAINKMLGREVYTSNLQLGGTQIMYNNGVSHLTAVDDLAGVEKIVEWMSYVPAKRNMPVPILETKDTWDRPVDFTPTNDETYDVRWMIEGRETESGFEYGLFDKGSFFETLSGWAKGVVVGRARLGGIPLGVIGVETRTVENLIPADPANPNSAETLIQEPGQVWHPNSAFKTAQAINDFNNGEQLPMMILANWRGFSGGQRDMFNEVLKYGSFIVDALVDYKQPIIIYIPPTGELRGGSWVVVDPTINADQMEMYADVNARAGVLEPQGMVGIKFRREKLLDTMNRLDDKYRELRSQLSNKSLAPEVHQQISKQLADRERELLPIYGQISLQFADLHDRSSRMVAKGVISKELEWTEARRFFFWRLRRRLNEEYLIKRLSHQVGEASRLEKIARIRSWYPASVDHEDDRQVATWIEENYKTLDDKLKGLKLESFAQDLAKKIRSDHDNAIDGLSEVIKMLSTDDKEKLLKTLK

Compound	pIC50 (fungal (fACC2); Table 2a)	pIC50 (fungal (fACC2); Table 2b, additional results)	MIC (C. parapsilosis; [1]) [µg/mL]	MIC (C. parapsilosis; [2]) [µg/mL]	MIC (C. krusei; [3]) [µg/mL]	MIC (C. krusei; [4]) [µg/mL]	pIC50 (human (hACC2); Table 2a)	pIC50 (human (hACC2); Table 2b, additional results)	MIC (C. albicans; [5]) [µg/mL]	MIC (C. albicans; [6]) [µg/mL]	MIC (C. parapsilosis; read-out: MIC, C. parapsilosis ATCC 22019, Table 3b (additional results), 3 replicates, MIC recorded at 48 h) [µg/mL]	MIC (C. krusei; read-out: MIC, C. krusei ATCC 6258, Table 3b (additional results), 3 replicates, MIC recorded at 48 h) [µg/mL]	MIC (C. albicans; read-out: MIC, C. albicans ATCC 90028, Table 3b (additional results), 3 replicates, MIC recorded at 48 h) [µg/mL]
COc1ccc(F)cc1[C@H](Cn1c(=O)n([C@H](C)C(=O)N(C)C(C)C)c(=O)c2c(C)c(-n3nccn3)sc21)O[C@H]1CC[C@@H](O)CC1 [Compound I-166]	9.00 to 9.40	9.00 to 9.52	0.25 to 1 (≈ 0.389 to 1.56 µM)	1.01 to 2 (≈ 1.57 to 3.11 µM)	0.25 to 1 (≈ 0.389 to 1.56 µM)	1.01 to 2 (≈ 1.57 to 3.11 µM)	8.30 to 9.00	8.30 to 9.00	0.25 to 1 (≈ 0.389 to 1.56 µM)	0.25 to 1 (≈ 0.389 to 1.56 µM)	–	–	–
COCCO[C@@H](Cn1c(=O)n(C(C)(C)C(=O)OC(C)C)c(=O)c2c(C)c(-n3nccn3)sc21)c1cc(F)ccc1OC [Compound I-127]	8.30 to 9.00	8.30 to 9.00	1.1 to 2 (≈ 1.82 to 3.31 µM)	> 4.01	0.25 to 1 (≈ 0.414 to 1.66 µM)	2.01 to 4 (≈ 3.33 to 6.63 µM)	7.40 to 8.00	7.40 to 8.00	1.1 to 2 (≈ 1.82 to 3.31 µM)	2.01 to 4 (≈ 3.33 to 6.63 µM)	–	–	–
CCOC(=O)[C@H]1CC[C@H](O[C@@H](Cn2c(=O)n(C(C)(C)C(=O)NC(C)C)c(=O)c3c(C)c(-n4nccn4)sc32)c2cc(F)ccc2OC)CC1 [Compound I-269]	–	8.30 to 9.00	–	0.25 to 1 (≈ 0.358 to 1.43 µM)	–	0.06 to 0.249 (≈ 0.0859 to 0.356 µM)	–	< 7.40	–	0.25 to 1 (≈ 0.358 to 1.43 µM)	–	–	–
CCc1ccc(F)cc1[C@H](Cn1c(=O)n(C(C)(C)C(=O)NC2CCC2)c(=O)c2c(C)c(-n3nccn3)sc21)OC1CCOCC1 [Compound I-232]	–	8.30 to 9.00	–	1.01 to 2 (≈ 1.58 to 3.13 µM)	–	1.01 to 2 (≈ 1.58 to 3.13 µM)	–	8.00 to 8.30	–	2.01 to 4 (≈ 3.15 to 6.26 µM)	–	–	–
Cc1c(-n2nccn2)sc2c1c(=O)n(C(C)(C)C(=O)NC(C)C)c(=O)n2C[C@H](OC1CCOCC1)c1cc(F)ccc1OCc1ccccc1 [Compound I-107]	8.30 to 9.00	8.30 to 9.00	1.1 to 2 (≈ 1.56 to 2.84 µM)	0.25 to 1 (≈ 0.355 to 1.42 µM)	0.25 to 1 (≈ 0.355 to 1.42 µM)	0.25 to 1 (≈ 0.355 to 1.42 µM)	8.00 to 8.30	8.00 to 8.30	0.25 to 1 (≈ 0.355 to 1.42 µM)	0.25 to 1 (≈ 0.355 to 1.42 µM)	–	–	–
COc1ccc(F)cc1[C@H](Cn1c(=O)n(C(C)(C)C(=O)NC2CCCCC2)c(=O)c2c(C)c(-n3nccn3)sc21)OCCC(C)=O [Compound I-106]	8.30 to 9.00	8.30 to 9.00	0.25 to 1 (≈ 0.382 to 1.53 µM)	0.25 to 1 (≈ 0.382 to 1.53 µM)	0.25 to 1 (≈ 0.382 to 1.53 µM)	0.25 to 1 (≈ 0.382 to 1.53 µM)	8.00 to 8.30	8.00 to 8.30	1.1 to 2 (≈ 1.68 to 3.05 µM)	1.01 to 2 (≈ 1.54 to 3.05 µM)	–	–	–
COc1ccc(F)cc1[C@H](Cn1c(=O)n(C(C)(C)C(=O)NC(C)(C)C)c(=O)c2c(C)c(-n3nccn3)sc21)OCCCO [Compound I-160]	8.30 to 9.00	8.30 to 9.00	1.1 to 2 (≈ 1.78 to 3.24 µM)	2.01 to 4 (≈ 3.26 to 6.49 µM)	0.25 to 1 (≈ 0.405 to 1.62 µM)	1.01 to 2 (≈ 1.64 to 3.24 µM)	8.00 to 8.30	8.00 to 8.30	2.1 to 4 (≈ 3.41 to 6.49 µM)	2.01 to 4 (≈ 3.26 to 6.49 µM)	–	–	–
COc1ccc(F)cc1[C@H](Cn1c(=O)n(C(C)(C)C(=O)NC(C)C)c(=O)c2c(C)c(-n3nccn3)sc21)OC[C@H](C)C(=O)O [Compound I-273]	–	9.00 to 9.52	–	1.01 to 2 (≈ 1.6 to 3.17 µM)	–	0.25 to 1 (≈ 0.396 to 1.59 µM)	–	< 7.40	–	0.25 to 1 (≈ 0.396 to 1.59 µM)	–	–	–
COc1ccccc1[C@@H](O)Cn1c(=O)n([C@@H](C)C(=O)NC(C)C)c(=O)c2c(C)c(-n3nccn3)sc21 [Compound I-201]	–	9.00 to 9.52	–	–	–	–	–	7.40 to 8.00	–	–	1.01 to 2 (≈ 1.97 to 3.9 µM)	2.01 to 4 (≈ 3.92 to 7.8 µM)	2.01 to 4 (≈ 3.92 to 7.8 µM)
COc1ccc(F)cc1[C@H](Cn1c(=O)n([C@@H](C)C(=O)N(C)C(C)C)c(=O)c2c(C)c(-n3nccn3)sc21)O[C@H]1CC[C@@H](O)CC1 [Compound I-167]	9.00 to 9.40	9.00 to 9.52	2.1 to 4 (≈ 3.27 to 6.22 µM)	1.01 to 2 (≈ 1.57 to 3.11 µM)	0.25 to 1 (≈ 0.389 to 1.56 µM)	1.01 to 2 (≈ 1.57 to 3.11 µM)	8.00 to 8.30	8.00 to 8.30	1.1 to 2 (≈ 1.71 to 3.11 µM)	0.25 to 1 (≈ 0.389 to 1.56 µM)	–	–	–
